The results in this text go back to US9040529B2 (Vichem Chemie Kutató Kft., priority 2009, dated 2015).

For the assay, the target named is T1, human CDK9/CyclinT kinase complex (Homo sapiens, UniProt P50750).
T1 construct: purchased Proqinase 0371-0345-1
In words: In vitro CDK9/CyclinT assay (IMAP fluorescence polarization kinase assay). Type of assay: biochemical. The conditions noted are these: 5 nM CDK9/CyclinT, 400 nM TAMRA-Rbtide, 12 μM ATP, 1 hour at room temperature; read-out: CDK9 inhibitory range. In short, it runs like this:
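Recombinant human CDK9/CyclinT (5 nM) phosphorylated 400 nM TAMRA-labelled Rb-derived 15-mer peptide with 12 μM ATP (=Kmapp) in 20 mM MOPS pH 7, 10 mM MgCl2, 1 mM DTT and 0.01% Tween 20 for 1 h at room temperature. Phosphopeptide was detected by IMAP-bead fluorescence polarization after a further 1 h.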

T1 sequence (P50750 whole entry): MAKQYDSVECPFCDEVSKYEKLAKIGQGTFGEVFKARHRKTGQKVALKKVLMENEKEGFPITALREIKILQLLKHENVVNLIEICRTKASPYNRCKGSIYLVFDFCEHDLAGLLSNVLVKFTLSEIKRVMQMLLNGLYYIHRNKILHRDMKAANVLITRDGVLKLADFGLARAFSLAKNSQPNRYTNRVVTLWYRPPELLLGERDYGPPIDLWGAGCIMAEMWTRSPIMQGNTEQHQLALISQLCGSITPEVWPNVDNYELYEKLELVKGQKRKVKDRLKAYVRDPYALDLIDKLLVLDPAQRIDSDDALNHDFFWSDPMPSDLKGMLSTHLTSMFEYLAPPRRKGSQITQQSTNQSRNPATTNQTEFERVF
T1 sequence (O60563 whole entry partner): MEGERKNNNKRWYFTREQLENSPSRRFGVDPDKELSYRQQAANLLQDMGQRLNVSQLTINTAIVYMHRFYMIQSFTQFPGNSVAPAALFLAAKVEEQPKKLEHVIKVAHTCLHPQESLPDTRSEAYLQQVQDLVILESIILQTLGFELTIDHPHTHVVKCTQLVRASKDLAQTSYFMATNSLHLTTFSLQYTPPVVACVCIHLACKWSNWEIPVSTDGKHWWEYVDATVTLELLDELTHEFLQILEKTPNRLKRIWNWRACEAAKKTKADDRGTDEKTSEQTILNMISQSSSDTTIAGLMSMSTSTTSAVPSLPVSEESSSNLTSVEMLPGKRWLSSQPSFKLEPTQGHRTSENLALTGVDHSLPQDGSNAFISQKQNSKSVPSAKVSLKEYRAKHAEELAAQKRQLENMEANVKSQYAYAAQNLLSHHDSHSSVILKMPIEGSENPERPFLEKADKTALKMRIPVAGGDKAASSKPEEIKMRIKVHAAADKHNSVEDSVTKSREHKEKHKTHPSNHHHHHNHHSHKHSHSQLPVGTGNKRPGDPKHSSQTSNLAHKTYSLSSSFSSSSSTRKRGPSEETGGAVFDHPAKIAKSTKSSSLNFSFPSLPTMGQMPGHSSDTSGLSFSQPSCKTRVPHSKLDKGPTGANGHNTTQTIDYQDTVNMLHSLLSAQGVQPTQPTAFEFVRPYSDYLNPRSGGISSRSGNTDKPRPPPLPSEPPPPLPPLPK

For `COc1ccccc1-c1cc(Nc2cccc(Cn3ccc4ccccc43)c2)ncn1` [Example 91, (3-Indol-1-ylmethyl-phenyl)-[6-(2-methoxy-phenyl)-pyrimidin-4-yl]-amine], the IC50 was below 10 µM.

Regarding `Clc1cc(Nc2cccc(Cn3c(CN4CCOCC4)nc4ccccc43)c2)ncn1` [Example 92, (6-Chloro-pyrimidin-4-yl)-[3-(2-morpholin-4-ylmethyl-benzoimidazol-1-ylmethyl)-phenyl]amine], the IC50 was above 10 µM.

With `COc1ccccc1-c1cc(Nc2cccc(Cn3c(CN4CCOCC4)nc4ccccc43)c2)ncn1` [Example 93, [6-(2-Methoxy-phenyl)-pyrimidin-4-yl]-[3-(2-morpholin-4-ylmethyl-benzoimidazol-1-ylmethyl)-phenyl]-amine], the IC50 was below 10 µM.

For the molecule `COc1cc(F)ccc1-c1cc(Nc2cccc(Cn3c(CN4CCOCC4)nc4ccccc43)c2)ncn1` [Example 94, [6-(4-Fluoro-2-methoxy-phenyl)-pyrimidin-4-yl]-[3-(2-morpholin-4-ylmethyl-benzoimidazol-1-ylmethyl)-phenyl]-amine], the IC50 was below 10 µM.
